This test has as its system Aorta. Briefly: Vasorelaxation activity in Wistar rat thoracic aorta assessed as inhibition of norepinephrine-induced contraction at 10^-4 M. The test is classed as functional. On the set-up: scale not given: the % may be the effect or the level left.

This note sets out measurements from ChEMBL document CHEMBL1157954, “Cycloleonuripeptides E and F, cyclic nonapeptides from Leonurus heterophyllus” (2006).

Residues, ends and D or L forms follow the SMILES beside them.

Turning to `CC[C@H](C)[C@@H]1NC(=O)[C@@H]2CCCN2C(=O)[C@H](C)NC(=O)[C@@H]2CCCN2C(=O)[C@H]([C@@H](C)O)NC(=O)[C@H](Cc2ccccc2)NC(=O)[C@H](C)NC(=O)[C@H](C)NC(=O)[C@H](C(C)C)NC1=O` [CYCLOLEONURIPEPTIDE E] (cyclo(AAFTPAPIV)), the Activity was determined as 32%. As to `CC(C)C[C@@H]1NC(=O)[C@@H]2CCCN2C(=O)[C@H](Cc2ccc(O)cc2)NC(=O)CNC(=O)[C@@H]2CCCN2C(=O)[C@@H]2CCCN2C(=O)[C@H](Cc2ccc(O)cc2)NC(=O)[C@H](Cc2ccccc2)NC(=O)[C@@H]2CCCN2C1=O` [CYCLOLEONURIPEPTIDE F] (cyclo(FYPPGYPLP)), the Activity came to 40%.
